pIC50: −log10 of the molar value.
Key:
[1] = biological target: T1, KAT6A (Homo sapiens, UniProt Q92794); assay: KATs acetyltransferase enzyme activity assay (TR-FRET), KAT6A; type: biochemical; details: Biotin-H3 (1-21) and AcCOA, 90 minutes at room temperature
T1 construct: purchased Active Motif 81223
Method: (§1) I. KATs acetyltransferase enzyme activity assay
• 1. The inhibitory effect of compounds on the acetyltransferase activity of KATs was evaluated using the Time-Resolved Fluorescence Resonance Energy Transfer (TR-FRET) assay. The assay was conducted in 384-well plates using Tris-HCl buffer. • 2. Compounds were diluted in DMSO and transferred to 384-well plates. […] Subsequently, 2.5 µL of a mixture containing KAT6A/KAT6B: Biotin-H3 (1-21, Genscript, C6829GL060) or KAT5/7/8: Bio-H4 (1-25, Genscript, C736BGL100) AcCOA (Sigma, A2056) was added, and the reaction proceeded at room temperature for 90 minutes. • 4. After the reaction, a detection mixture containing Europium-anti-acetyl-Histone H4 Lysine (H4Kac pan) Antibody (Perkin Elmer, TRF0412) and LANCE Ultra ULight™-Streptavidin in LANCE™ Detection buffer (10x) (Perkin Elmer, CR97-100) was added, followed by incubation at room temperature for 60 minutes. • 5. […] IC50 values were calculated by nonlinear regression using a four-parameter logistic equation in GraphPad Prism 8 software.

[2] = biological target: T2, KAT6B (Homo sapiens, UniProt Q8WYB5); assay: KATs acetyltransferase enzyme activity assay (TR-FRET), KAT6B; type: biochemical; details: Biotin-H3 (1-21) and AcCOA, 90 minutes at room temperature
T2 construct: purchased Active Motif 81224
Method: as §1
• 1. The inhibitory effect of compounds on the acetyltransferase activity of KATs was evaluated using the Time-Resolved Fluorescence Resonance Energy Transfer (TR-FRET) assay. The assay was conducted in 384-well plates using Tris-HCl buffer. • 2. Compounds were diluted in DMSO and transferred to 384-well plates. Enzyme solutions (KAT6: active motif (kit), 81223; KAT6B: active motif, 81224; KAT5: SignalChem, K314-380G; KAT7: ICE, S2210F-H21HF; KAT8: Active motif, 81225) were added and the mixture was incubated at room temperature for 15 minutes. • 3. Subsequently, 2.5 µL of a mixture containing KAT6A/KAT6B: Biotin-H3 (1-21, Genscript, C6829GL060) or KAT5/7/8: Bio-H4 (1-25, Genscript, C736BGL100) AcCOA (Sigma, A2056) was added, and the reaction proceeded at room temperature for 90 minutes. • 4. After the reaction, a detection mixture containing Europium-anti-acetyl-Histone H4 Lysine (H4Kac pan) Antibody (Perkin Elmer, TRF0412) and LANCE Ultra ULight™-Streptavidin in LANCE™ Detection buffer (10x) (Perkin Elmer, CR97-100) was added, followed by incubation at room temperature for 60 minutes. • 5. HTRF signals were measured using a BMG PHERAstar FSX (Ratio: 665nm/620nm). IC50 values were calculated by nonlinear regression using a four-parameter logistic equation in GraphPad Prism 8 software.

[3] = test system: ZR-75-1 H3K23 Acetylation; assay: Histone H3 acetylation assay (H3K23 acetylation in ZR-75-1 cells); type: cell-based; details: Homo sapiens, 72 hours incubation, Odyssey CLx fluorescence, read-out: ZR-75-1 H3K23 Acetylation Inhibition IC50
Method: III. Histone H3 acetylation assay
• 1. ZR-75-1 cells were seeded at 5000 cells/40 µL per well in 384-well plates and cultured overnight in an incubator at 37°C & 5% CO2. • 2. 40 nL of serially diluted compounds were added to the 384-well plates, followed by further incubation for 72 hours. • 3. The supernatant was discarded, and 8 w/v% paraformaldehyde (final concentration was 4 w/v%) was added directly to the wells to fix the cells at room temperature. • 4. After washing twice with PBS, a permeabilization agent (40 µL of methanol) was added and incubated for 10 minutes to permeabilize the cell membranes. • 5. After washing twice with PBS, a blocking buffer was added and incubated at room temperature for 1 hour for blocking. • 6. The blocking buffer was discarded, and 20 µL of primary antibodies (recombinant Anti-Histone H3 (acetyl K23) antibody and Anti-Histone H4 antibody) diluted in blocking buffer (1:1000 by volume dilution) were added, followed by incubation at 4°C overnight. • 7. After washing three times with PBST (0.05 vol% Tween-20 in PBS), 20 µL of fluorescent secondary antibodies (IRDye 680RD Goat anti-MOUSE, Licor, 926-68070; IRDye 800CW Goat anti-Rabbit, Licor, 926-32211) diluted in blocking buffer (1:2000 by volume dilution) were added, followed by incubation at room temperature, protected from light, for 1 hour. Then, the plates were washed three times with PBST. • 8. Scanning was performed using an Odyssey CLx, and the fluorescence signal value for each well was quantified. IC50 values were calculated by nonlinear regression using a four-parameter logistic equation in GraphPad Prism 8 software.

[4] = test system: ZR-75-1 cells; assay: ZR-75-1 cell proliferation assay (CellTiter-Glo); type: cell-based; details: Homo sapiens, ZR-75-1, 240 h, total culture period of 10 days, read-out: ZR-75-1 Proliferation Inhibition IC50
Method: II. ZR-75-1 cell proliferation assay
• 1. ZR-75-1 cells were seeded in 96-well plates and cultured overnight in an incubator at 37°C & 5% CO2. • 2. Compounds were diluted using culture medium and added to the 96-well plates. The plates were placed back into the incubator for continued culture. Every 5 days, the cells were trypsinized, counted, and re-seeded. After the cells had fully adhered, compounds were added again for incubation, for a total culture period of 10 days. • 3. After the culture period, 60 µL of CellTiter-Glo reagent (Promega, G7573) was added to each well. The plates were protected from light and shaken for 2 minutes to lyse the cells, followed by further incubation at room temperature, protected from light, for 30 minutes. • 4. Luminescence signals were read using a BMG PHERAstar FSX. IC50 values were calculated by nonlinear regression using a four-parameter logistic equation in GraphPad Prism 8 software.

T2 sequence (Q8WYB5 whole entry): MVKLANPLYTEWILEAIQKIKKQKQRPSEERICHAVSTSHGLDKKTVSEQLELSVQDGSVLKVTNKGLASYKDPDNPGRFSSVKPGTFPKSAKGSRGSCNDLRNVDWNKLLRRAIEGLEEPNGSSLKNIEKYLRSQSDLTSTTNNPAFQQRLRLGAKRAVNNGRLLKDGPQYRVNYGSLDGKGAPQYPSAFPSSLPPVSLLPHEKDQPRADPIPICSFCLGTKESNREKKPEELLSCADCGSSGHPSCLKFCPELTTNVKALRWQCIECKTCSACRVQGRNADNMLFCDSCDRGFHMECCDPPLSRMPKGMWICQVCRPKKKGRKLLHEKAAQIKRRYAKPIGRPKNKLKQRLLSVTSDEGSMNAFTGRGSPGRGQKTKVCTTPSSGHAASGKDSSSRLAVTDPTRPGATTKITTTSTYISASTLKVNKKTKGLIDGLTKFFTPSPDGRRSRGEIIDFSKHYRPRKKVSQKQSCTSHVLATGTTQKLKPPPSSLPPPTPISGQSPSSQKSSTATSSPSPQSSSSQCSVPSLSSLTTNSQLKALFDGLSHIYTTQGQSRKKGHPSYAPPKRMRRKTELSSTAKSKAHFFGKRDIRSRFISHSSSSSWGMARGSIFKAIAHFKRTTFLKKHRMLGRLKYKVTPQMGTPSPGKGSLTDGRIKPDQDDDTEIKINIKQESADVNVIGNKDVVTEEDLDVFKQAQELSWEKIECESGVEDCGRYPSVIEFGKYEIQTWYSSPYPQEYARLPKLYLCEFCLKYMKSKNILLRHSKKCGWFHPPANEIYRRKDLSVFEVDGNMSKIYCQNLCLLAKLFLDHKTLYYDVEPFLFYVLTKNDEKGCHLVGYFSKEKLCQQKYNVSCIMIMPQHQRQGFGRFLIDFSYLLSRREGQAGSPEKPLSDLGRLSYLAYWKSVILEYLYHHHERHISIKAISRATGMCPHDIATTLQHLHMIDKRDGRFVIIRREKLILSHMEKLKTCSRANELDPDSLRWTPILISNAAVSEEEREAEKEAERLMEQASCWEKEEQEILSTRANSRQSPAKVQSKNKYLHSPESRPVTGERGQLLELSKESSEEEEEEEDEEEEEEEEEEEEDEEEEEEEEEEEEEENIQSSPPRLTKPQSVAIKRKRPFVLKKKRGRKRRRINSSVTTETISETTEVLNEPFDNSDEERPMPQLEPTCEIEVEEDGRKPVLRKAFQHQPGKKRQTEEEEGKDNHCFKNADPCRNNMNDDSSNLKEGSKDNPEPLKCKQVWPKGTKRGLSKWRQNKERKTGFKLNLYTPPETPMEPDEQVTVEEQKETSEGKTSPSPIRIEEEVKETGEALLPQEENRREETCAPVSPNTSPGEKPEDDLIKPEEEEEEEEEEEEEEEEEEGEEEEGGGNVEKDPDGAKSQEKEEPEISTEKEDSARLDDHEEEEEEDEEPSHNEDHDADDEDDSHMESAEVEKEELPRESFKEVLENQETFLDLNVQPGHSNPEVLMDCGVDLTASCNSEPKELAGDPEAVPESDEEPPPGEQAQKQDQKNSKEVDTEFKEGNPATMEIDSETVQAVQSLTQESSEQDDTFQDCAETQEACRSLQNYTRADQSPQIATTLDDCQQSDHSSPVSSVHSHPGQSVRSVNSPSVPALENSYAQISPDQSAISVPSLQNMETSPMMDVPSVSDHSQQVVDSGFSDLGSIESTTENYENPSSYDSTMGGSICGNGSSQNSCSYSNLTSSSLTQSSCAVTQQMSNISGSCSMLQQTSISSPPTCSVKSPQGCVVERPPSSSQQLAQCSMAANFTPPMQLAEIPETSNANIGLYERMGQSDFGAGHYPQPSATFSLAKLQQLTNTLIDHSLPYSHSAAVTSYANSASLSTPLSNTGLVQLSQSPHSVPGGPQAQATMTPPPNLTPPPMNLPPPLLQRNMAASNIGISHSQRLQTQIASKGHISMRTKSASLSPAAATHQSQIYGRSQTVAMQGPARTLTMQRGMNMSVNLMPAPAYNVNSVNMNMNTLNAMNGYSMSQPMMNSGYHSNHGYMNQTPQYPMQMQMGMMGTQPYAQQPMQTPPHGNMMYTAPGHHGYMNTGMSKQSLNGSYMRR
T1 sequence (Q92794 488-778 limits assumed): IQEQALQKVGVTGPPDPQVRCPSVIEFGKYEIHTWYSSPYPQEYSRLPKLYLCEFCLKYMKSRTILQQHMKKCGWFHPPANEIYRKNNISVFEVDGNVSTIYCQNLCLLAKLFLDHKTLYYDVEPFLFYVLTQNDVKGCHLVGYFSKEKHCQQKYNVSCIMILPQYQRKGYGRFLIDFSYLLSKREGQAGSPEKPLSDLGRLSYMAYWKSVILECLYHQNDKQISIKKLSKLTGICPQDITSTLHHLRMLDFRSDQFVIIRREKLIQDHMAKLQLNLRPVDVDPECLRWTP

CCc1c(Cn2cccn2)cc2onc(NS(=O)(=O)c3c(OC)ccc4c3OCC43CC3)c2c1OC [Compound 28, N-(6-((1H-Pyrazol-1-yl)methyl)-5-ethyl-4-methoxybenzo[d]isoxazol-3-yl)-6-methoxy-2 H-spiro[benzofuran-3,1'-cyclopropane]-7-sulfonamide]
pIC50 [1]: 8.66
pIC50 [2]: 7.91
pIC50 [3]: 7.42
pIC50 [4]: 7.78

COc1ccc2c(c1S(=O)(=O)Nc1noc3cc(Cn4cccn4)c(F)c(OC)c13)OCCCO2 [Compound 29, N-(6-((1H-Pyrazol-1-yl)methyl)-5-fluoro-4-methoxybenzo[d]isoxazol-3-yl)-7-methoxy-3,4-dihydro-2H-benzo[b][1,4]dioxepine-6-sulfonamide]
pIC50 [1]: 8.52
pIC50 [2]: 7.63
pIC50 [3]: 8.34
pIC50 [4]: 9.22

COc1ccc2c(c1S(=O)(=O)Nc1noc3cc(Cn4cccn4)c(F)c(OC)c13)OCC1CC21 (stereo not shown) [Compound 30, N-(6-((1H-Pyrazol-1-yl)methyl)-5-fluoro-4-methoxybenzo[d]isoxazol-3-yl)-5-methoxy-1,1a,2,7b-tetrahydrocyclopropa[c]chromene-4-sulfonamide]
pIC50 [1]: 9.10
pIC50 [2]: 8.74
pIC50 [3]: 9.10
pIC50 [4]: 9.82

COc1ccc2c(c1S(=O)(=O)Nc1noc3cc(Cn4cccn4)c(F)c(OC)c13)OCC21CC1 [Compound 31, N-(6-((1H-Pyrazol-1-yl)methyl)-5-fluoro-4-methoxybenzo[d]isoxazol-3-yl)-6-methoxy-2H-spiro[benzofuran-3,1'-cyclopropane]-7-sulfonamide]
pIC50 [1]: 8.89
pIC50 [2]: 8.57
pIC50 [3]: 8.96
pIC50 [4]: 9.52

COc1ccc2c(c1S(=O)(=O)Nc1noc3cc(Cn4cccn4)c4c(c13)OCC4)OCCCO2 [Compound 35, N-(4-((1H-Pyrazol-1-yl)methyl)-2,3-dihydrobenzofuro[7,6-d]isoxazol-8-yl)-7-methoxy-3,4-dihydro-2H-benzo[b][1,4]dioxepine-6-sulfonamide]
pIC50 [1]: 8.37
pIC50 [2]: 7.34
pIC50 [3]: 7.82
pIC50 [4]: 8.48

COc1ccc2c(c1S(=O)(=O)Nc1noc3cc(Cn4cccn4)c4c(c13)OCC4)OCC21CC1 [Compound 36, N-(4-((1H-Pyrazol-1-yl)methyl)-2,3-dihydrobenzofuro[7,6-d]isoxazol-8-yl)-6-methoxy-2H-spiro[benzofuran-3,1'-cyclopropane]-7-sulfonamide]
pIC50 [1]: 8.77
pIC50 [2]: 8.10
pIC50 [3]: 8.43
pIC50 [4]: 9.40

COc1ccc2c(c1S(=O)(=O)Nc1noc3cc(Cn4cccn4)c4c(c13)OCC4)OCC1CC21 (stereo not shown) [Compound 37, N-(4-((1H-Pyrazol-1-yl)methyl)-2,3-dihydrobenzofuro[7,6-d]isoxazol-8-yl)-5-methoxy-1,1a,2,7b-tetrahydrocyclopropa[c]chromene-4-sulfonamide]
pIC50 [1]: 8.80
pIC50 [2]: 8.39
pIC50 [3]: 8.92
pIC50 [4]: 9.40

COc1ccc2c(c1S(=O)(=O)Nc1noc3cc(Cn4cccn4)c(OC)c(C)c13)OCC21CC1 [Compound 39, N-(6-((1H-Pyrazol-1-yl)methyl)-5-methoxy-4-methylbenzo[d]isoxazol-3-yl)-6-methoxy-2H-spiro[benzofuran-3,1'-cyclopropane]-7-sulfonamide]
pIC50 [1]: 8.66
pIC50 [2]: 7.42
pIC50 [3]: 7.63
pIC50 [4]: 8.59

COc1ccc2c(c1S(=O)(=O)Nc1noc3cc(Cn4cccn4)c(OC)c(C)c13)OCC1CC21 (stereo not shown) [Compound 40, N-(6-((1H-Pyrazol-1-yl)methyl)-5-methoxy-4-methylbenzo[d]isoxazol-3-yl)-5-methoxy-1,1a,2,7b-tetrahydrocyclopropa[c]chromene-4-sulfonamide]
pIC50 [1]: 8.77
pIC50 [2]: 7.89
pIC50 [3]: 7.91
pIC50 [4]: 8.80

COc1ccc2c(c1S(=O)(=O)Nc1noc3cc(Cn4cccn4)cc(OC)c13)OCCCN2C [Compound 41, N-(6-((1H-Pyrazol-1-yl)methyl)-4-methoxybenzo[d]isoxazol-3-yl)-8-methoxy-5-methyl-2,3,4,5-tetrahydrobenzo[b][1,4]oxazepine-9-sulfonamide]
pIC50 [1]: 8.05
pIC50 [2]: 7.01
pIC50 [3]: 7.69
pIC50 [4]: 8.32
